Assay results from patent US9133148B2, “Carbamate compounds and of making and using same” (Abide Therapeutics, Inc., priority 2012, dated 2015).

Assays:
Assay type in all cases: biochemical
FAAH = FAAH (Mus musculus (Mouse), UniProt O08914); assay: Competitive ABPP, % inhibition at 1 uM, FAAH
Procedure: (§1) In Vitro Competitive Activity-Based Protein Profiling.
Proteomes (mouse brain membrane fraction or cell lysates) ([…], 1.0 mg/mL total protein concentration) were preincubated with varying concentrations of inhibitors at 37° C. After 30 min, FP-Rh (1.0 μL, 50 μM in DMSO) was added and the mixture was incubated for another 30 min at 37° C. Reactions were quenched with SDS loading buffer (50 μL—4×) and run on SDS-PAGE. Following gel imaging, serine hydrolase activity was determined by measuring fluorescent intensity of gel bands corresponding to MAGL, ABHD6 and FAAH using ImageJ 1.43u software.

MAGL = MAGL (Mus musculus (Mouse), UniProt O35678); assay: Competitive ABPP, % inhibition at 1 uM, MAGL
Procedure: as §1
(§2) Proteomes (mouse brain membrane fraction or cell lysates) ([…], 1.0 mg/mL total protein concentration) were preincubated with varying concentrations of inhibitors at 37° C. After 30 min, FP-Rh (1.0 μL, 50 μM in DMSO) was added and the mixture was incubated for another 30 min at 37° C. Reactions were quenched with SDS loading buffer (50 μL—4×) and run on SDS-PAGE.

ABHD6 = ABHD6 (Mus musculus (Mouse), UniProt Q8R2Y0); assay: Competitive ABPP, % inhibition at 1 uM, ABHD6
Procedure: as §1, §2

ABHD6, sequence (Q8R2Y0 whole entry): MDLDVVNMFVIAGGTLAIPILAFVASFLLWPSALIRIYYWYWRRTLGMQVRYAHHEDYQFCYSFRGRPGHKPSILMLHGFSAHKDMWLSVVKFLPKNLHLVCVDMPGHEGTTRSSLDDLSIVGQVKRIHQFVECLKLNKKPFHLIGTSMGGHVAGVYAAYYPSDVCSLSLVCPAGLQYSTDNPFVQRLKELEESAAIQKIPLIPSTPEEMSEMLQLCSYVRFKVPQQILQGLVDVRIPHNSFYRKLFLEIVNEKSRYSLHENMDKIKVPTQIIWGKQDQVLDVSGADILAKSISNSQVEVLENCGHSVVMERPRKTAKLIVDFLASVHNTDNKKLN
MAGL, sequence (O35678 whole entry): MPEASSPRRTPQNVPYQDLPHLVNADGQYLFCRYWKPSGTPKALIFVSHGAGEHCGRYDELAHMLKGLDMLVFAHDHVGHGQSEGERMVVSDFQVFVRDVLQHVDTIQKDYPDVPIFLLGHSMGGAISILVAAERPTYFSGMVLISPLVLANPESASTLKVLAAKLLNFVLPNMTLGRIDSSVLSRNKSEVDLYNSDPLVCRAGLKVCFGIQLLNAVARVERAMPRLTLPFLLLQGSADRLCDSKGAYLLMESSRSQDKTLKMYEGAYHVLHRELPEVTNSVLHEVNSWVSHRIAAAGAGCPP
FAAH, sequence (O08914 whole entry): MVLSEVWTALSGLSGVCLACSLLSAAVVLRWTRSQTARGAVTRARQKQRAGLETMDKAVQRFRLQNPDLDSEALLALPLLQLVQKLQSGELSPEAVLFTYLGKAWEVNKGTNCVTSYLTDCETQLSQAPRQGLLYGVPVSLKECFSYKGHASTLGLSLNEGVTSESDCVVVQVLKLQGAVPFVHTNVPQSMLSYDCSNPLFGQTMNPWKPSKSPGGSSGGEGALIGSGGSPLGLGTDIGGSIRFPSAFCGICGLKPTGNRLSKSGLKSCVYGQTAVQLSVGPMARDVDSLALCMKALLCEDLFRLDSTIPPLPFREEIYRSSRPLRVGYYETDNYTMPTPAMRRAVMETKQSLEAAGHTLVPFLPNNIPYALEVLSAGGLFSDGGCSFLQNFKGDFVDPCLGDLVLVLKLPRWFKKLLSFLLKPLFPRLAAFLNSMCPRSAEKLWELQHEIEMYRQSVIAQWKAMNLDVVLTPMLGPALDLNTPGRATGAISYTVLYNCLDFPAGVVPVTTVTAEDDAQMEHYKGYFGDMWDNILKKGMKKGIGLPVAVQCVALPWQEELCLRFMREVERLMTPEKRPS

Row | inhibition at 1 µM (FAAH) [%] | inhibition at 1 µM (MAGL) [%] | inhibition at 1 µM (ABHD6) [%] | Structure (SMILES)
1 | < 25 | > 75 | 25 to 75 | Cc1cnccc1-c1ccc(CN2CCN(C(=O)OC(C(F)(F)F)C(F)(F)F)CC2)c(F)c1 [Example 11ab, 1,1,1,3,3,3-hexafluoropropan-2-yl 4-[[2-fluoro-4-(3-methylpyridin-4-yl)phenyl]methyl]piperazine-1-carboxylate]
2 | < 25 | > 75 | 25 to 75 | Cc1nc(-c2cccc(F)c2)ccc1CN1CCN(C(=O)OC(C(F)(F)F)C(F)(F)F)CC1 [Example 11e, 1,1,1,3,3,3-hexafluoropropan-2-yl 4-[[6-(3-fluorophenyl)-2-methylpyridin-3-yl]methyl]piperazine-1-carboxylate]
3 | < 25 | > 75 | 25 to 75 | Cc1ncccc1-c1ccc(CN2CCN(C(=O)OC(C(F)(F)F)C(F)(F)F)CC2)c(F)c1 [Example 11t, 1,1,1,3,3,3-hexafluoropropan-2-yl 4-[[2-fluoro-4-(2-methylpyridin-3-yl)phenyl]methyl]piperazine-1-carboxylate]
4 | < 25 | > 75 | > 75 | Cc1cc(-c2ccc(CN3CCN(C(=O)OC(C(F)(F)F)C(F)(F)F)CC3)c(F)c2)ccn1 [Example 11g, 1,1,1,3,3,3-hexafluoropropan-2-yl 4-[[2-fluoro-4-(2-methylpyridin-4-yl)phenyl]methyl]piperazine-1-carboxylate]
5 | < 25 | > 75 | 25 to 75 | Cc1nc(CN2CCN(C(=O)OC(C(F)(F)F)C(F)(F)F)CC2)ccc1-c1cccc(F)c1 [Example 11w, 1,1,1,3,3,3-hexafluoropropan-2-yl 4-[[5-(3-fluorophenyl)-6-methylpyridin-2-yl]methyl]piperazine-1-carboxylate]
6 | < 25 | > 75 | 25 to 75 | Cc1cccc(-c2ccc(CN3CCN(C(=O)OC(C(F)(F)F)C(F)(F)F)CC3)c(F)c2)n1 [Example 11ac, 1,1,1,3,3,3-hexafluoropropan-2-yl 4-[[2-fluoro-4-(6-methylpyridin-2-yl)phenyl]methyl]piperazine-1-carboxylate]
7 | < 25 | > 75 | 25 to 75 | Cc1cc(-c2ccc(CN3CCN(C(=O)OC(C(F)(F)F)C(F)(F)F)CC3)c(F)c2)cc(C)n1 [Example 11aa, 1,1,1,3,3,3-hexafluoropropan-2-yl 4-[[4-(2,6-dimethylpyridin-4-yl)-2-fluorophenyl]methyl]piperazine-1-carboxylate]
8 | < 25 | > 75 | 25 to 75 | O=C(OC(C(F)(F)F)C(F)(F)F)N1CCN(Cc2ccc(-c3cccc(F)c3)cc2F)CC1 [Example 11o, 1,1,1,3,3,3-hexafluoropropan-2-yl 4-[[2-fluoro-4-(3-fluorophenyl)phenyl]methyl]piperazine-1-carboxylate]

The remaining lines, values behind:

Row | Structure (SMILES) | inhibition at 1 µM (FAAH) [%] | inhibition at 1 µM (MAGL) [%] | inhibition at 1 µM (ABHD6) [%]
9 | CC(C)c1cc(N2CCOCC2)ccc1CN1CCN(C(=O)OC(C(F)(F)F)C(F)(F)F)CC1 [Example 9bc, 1,1,1,3,3,3-hexafluoropropan-2-yl 4-[[4-(morpholin-4-yl)-2-(propan-2-yl)phenyl]methyl]piperazine-1-carboxylate] | < 25 | 25 to 75 | < 25
10 | C[C@@H]1CN(Cc2ccc(N3CCOCC3)cc2F)CCN1C(=O)OC(C(F)(F)F)C(F)(F)F [Example 9k, 1,1,1,3,3,3-hexafluoropropan-2-yl(2R)-4-[[2-fluoro-4-(morpholin-4-yl)phenyl]methyl]-2-methylpiperazine-1-carboxylate] | < 25 | < 25 | < 25
11 | C[C@H]1CN(Cc2ccc(N3CCOCC3)cc2F)CCN1C(=O)OC(C(F)(F)F)C(F)(F)F [Example 9i, 1,1,1,3,3,3-hexafluoropropan-2-yl(2S)-4-[[2-fluoro-4-(morpholin-4-yl)phenyl]methyl]-2-methylpiperazine-1-carboxylate] | < 25 | 25 to 75 | 25 to 75
12 | COc1ccc(-c2cc(CN3CCN(C(=O)OC(C(F)(F)F)C(F)(F)F)CC3)no2)cc1 [Example 10a, 1,1,1,3,3,3-hexafluoropropan-2-yl 4-((5-(4-methoxyphenyl)isoxazol-3-yl)methyl)piperazine-1-carboxylate] | < 25 | > 75 | 25 to 75
13 | O=C(OC(C(F)(F)F)C(F)(F)F)N1CCN(Cc2ccc(C(=O)N3CCCC3)cc2Cl)CC1 [Example 9bd, 1,1,1,3,3,3-hexafluoropropan-2-yl 4-(2-chloro-4-(pyrrolidine-1-carbonyl)benzyl)piperazine-1-carboxylate] | < 25 | 25 to 75 | 25 to 75
14 | Cc1cccc(-c2ccc(CN3CCN(C(=O)OC(C(F)(F)F)C(F)(F)F)CC3)c(Oc3ccccc3)c2)c1 [Example 11r, 1,1,1,3,3,3-hexafluoropropan-2-yl 4-[[4-(3-methylphenyl)-2-phenoxyphenyl]methyl]piperazine-1-carboxylate] | < 25 | 25 to 75 | < 25
15 | O=C(OC(C(F)(F)F)C(F)(F)F)N1CCN(Cc2c(Cl)cccc2N2CCCC2)CC1 [Example 9m, 1,1,1,3,3,3-hexafluoropropan-2-yl 4-[[2-chloro-6-(pyrrolidin-1-yl)phenyl]methyl]piperazine-1-carboxylate] | < 25 | 25 to 75 | 25 to 75
16 | C[C@@H]1CN(Cc2ccc(N3CCOCC3)cc2C(F)(F)F)CCN1C(=O)OC(C(F)(F)F)C(F)(F)F [Example 9l, 1,1,1,3,3,3-hexafluoropropan-2-yl(2R)-2-methyl-4-[[4-(morpholin-4-yl)-2-(trifluoromethyl)phenyl]methyl]piperazine-1-carboxylate] | < 25 | < 25 | < 25
17 | Cc1cc(-c2ccc(CN3CCN(C(=O)OC(C(F)(F)F)C(F)(F)F)CC3)c(C)c2)cc(C)n1 [Example 11m, 1,1,1,3,3,3-hexafluoropropan-2-yl 4-[[4-(2,6-dimethylpyridin-4-yl)-2-methylphenyl]methyl]piperazine-1-carboxylate] | < 25 | 25 to 75 | 25 to 75
18 | Cc1cc(-c2ccc(CN3CCN(C(=O)OC(C(F)(F)F)C(F)(F)F)CC3)c(C)c2)ccn1 [Example 11i, 1,1,1,3,3,3-hexafluoropropan-2-yl 4-[[2-methyl-4-(2-methylpyridin-4-yl)phenyl]methyl]piperazine-1-carboxylate] | < 25 | 25 to 75 | 25 to 75
19 | Cc1cc(-c2cccnc2)ccc1CN1CCN(C(=O)OC(C(F)(F)F)C(F)(F)F)CC1 [Example 11l, 1,1,1,3,3,3-hexafluoropropan-2-yl 4-[[2-methyl-4-(pyridin-3-yl)phenyl]methyl]piperazine-1-carboxylate] | < 25 | > 75 | > 75
20 | Cc1nc(CN2CCN(C(=O)OC(C(F)(F)F)C(F)(F)F)CC2)ccc1-c1ccccc1F [Example 11v, 1,1,1,3,3,3-hexafluoropropan-2-yl 4-[[5-(2-fluorophenyl)-6-methyl-pyridin-2-yl]methyl]piperazine-1-carboxylate] | < 25 | > 75 | > 75
21 | C[C@@H]1CN(Cc2ccc(N3CCOCC3)cc2Cl)CCN1C(=O)OC(C(F)(F)F)C(F)(F)F [Example 9am, 1,1,1,3,3,3-hexafluoropropan-2-yl(2R)-4-[[2-chloro-4-(morpholin-4-yl)phenyl]methyl]-2-methylpiperazine-1-carboxylate] | < 25 | < 25 | < 25
22 | C[C@H]1CN(Cc2ccc(N3CCOCC3)cc2C(F)(F)F)CCN1C(=O)OC(C(F)(F)F)C(F)(F)F [Example 9j, 1,1,1,3,3,3-hexafluoropropan-2-yl(2S)-2-methyl-4-[[4-(morpholin-4-yl)-2-(trifluoromethyl)phenyl]methyl]piperazine-1-carboxylate] | < 25 | 25 to 75 | 25 to 75
23 | Cc1cc(-c2cccnc2C)ccc1CN1CCN(C(=O)OC(C(F)(F)F)C(F)(F)F)CC1 [Example 11s, 1,1,1,3,3,3-hexafluoropropan-2-yl 4-[[2-methyl-4-(2-methylpyridin-3-yl)phenyl]methyl]piperazine-1-carboxylate] | < 25 | 25 to 75 | 25 to 75
24 | O=C(OC(C(F)(F)F)C(F)(F)F)N1CCN(Cc2ccc(N3CCOCC3)cc2OC(F)(F)F)CC1 [Example 9ak, 1,1,1,3,3,3-hexafluoropropan-2-yl 4-[[4-(morpholin-4-yl)-2-(trifluoromethoxy)phenyl]methyl]piperazine-1-carboxylate] | < 25 | > 75 | 25 to 75
25 | Cc1cc(-c2ccncc2C)ccc1CN1CCN(C(=O)OC(C(F)(F)F)C(F)(F)F)CC1 [Example 11n, 1,1,1,3,3,3-hexafluoropropan-2-yl 4-[[2-methyl-4-(3-methylpyridin-4-yl)phenyl]methyl]piperazine-1-carboxylate] | < 25 | > 75 | > 75
